Measurements published in patent US20230233690A1, “ANDROGEN RECEPTOR PROTEIN DEGRADERS” (THE REGENTS OF THE UNIVERSITY OF MICHIGAN, priority 2020, published 2023).

Molecular target: T1, AR protein (Homo sapiens, UniProt P10275)
T1 construct: endogenous in cells; host or cells: VCaP
T1 sequence (P10275 1-920): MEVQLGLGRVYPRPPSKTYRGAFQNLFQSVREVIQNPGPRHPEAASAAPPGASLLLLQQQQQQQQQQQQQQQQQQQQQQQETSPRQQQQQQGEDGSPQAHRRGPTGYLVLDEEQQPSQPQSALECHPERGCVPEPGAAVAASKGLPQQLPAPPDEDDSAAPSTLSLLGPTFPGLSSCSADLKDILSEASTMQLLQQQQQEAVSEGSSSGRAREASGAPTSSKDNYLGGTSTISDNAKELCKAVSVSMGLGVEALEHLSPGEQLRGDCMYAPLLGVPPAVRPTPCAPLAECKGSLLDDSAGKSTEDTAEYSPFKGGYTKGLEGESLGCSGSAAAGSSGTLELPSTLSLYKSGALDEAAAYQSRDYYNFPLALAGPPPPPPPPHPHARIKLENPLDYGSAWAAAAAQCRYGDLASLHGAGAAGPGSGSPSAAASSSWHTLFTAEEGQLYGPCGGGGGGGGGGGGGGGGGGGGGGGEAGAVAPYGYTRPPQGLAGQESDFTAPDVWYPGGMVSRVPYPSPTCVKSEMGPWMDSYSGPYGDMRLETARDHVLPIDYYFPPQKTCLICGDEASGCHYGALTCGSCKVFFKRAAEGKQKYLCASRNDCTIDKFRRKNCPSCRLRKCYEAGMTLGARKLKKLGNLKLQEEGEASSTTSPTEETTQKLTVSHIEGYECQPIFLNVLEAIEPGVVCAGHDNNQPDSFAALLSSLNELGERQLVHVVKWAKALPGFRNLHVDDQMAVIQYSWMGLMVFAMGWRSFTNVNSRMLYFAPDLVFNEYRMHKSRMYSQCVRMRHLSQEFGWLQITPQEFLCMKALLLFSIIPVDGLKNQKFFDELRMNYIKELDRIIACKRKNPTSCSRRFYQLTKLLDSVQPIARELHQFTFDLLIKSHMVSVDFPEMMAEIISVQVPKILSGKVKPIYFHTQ
Test: Western blotting of AR protein degradation in VCaP cells
Type: cell-based
Conditions: for AR protein degradation VCap 10 nM / AR protein degradation VCap 100 nM: 24 hr treatment
Description: The treated cells were lysed with RIPA buffer. […] GAPDH was used as a loading control.
Bands were quantified with ImageJ software. The relative numbers of each band obtained from normalization with its corresponding GAPDH level were compared with Prism 8 software. The DC50 values were produced from Prism 8, and the DC90 values were calculated with an equation=Bottom+(Top−Bottom)/(1+10^((Log EC50−X)*HillSlope) based on DC50 and Hillslope values.

| Structure (SMILES) | AR protein degradation VCap 10 nM | AR protein degradation VCap 100 nM | other results |
| --- | --- | --- | --- |
| N#Cc1ccc(O[C@H]2CC[C@H](Nc3ccc(C(=O)N4CCN(C5CCN(c6ccc7c(c6)C(=O)N(C6CCC(=O)NC6=O)C7=O)CC5)CC4)cc3)CC2)cc1Cl (stereo partly shown) [Cpd. No. 12] | C (>10% degradation but <50% (24 hr treatment)) | A (>90% degradation (24 hr treatment)) | – |
| N#Cc1ccc(O[C@H]2CC[C@H](Nc3ccc(C(=O)N4CCN(C5CN(c6ccc7c(c6)C(=O)N(C6CCC(=O)NC6=O)C7=O)C5)CC4)cc3)CC2)cc1Cl (stereo partly shown) [Cpd. No. 17, 2-chloro-4-(((1r,4r)-4-((4-(4-(1-(2-(2,6-dioxopiperidin-3-yl)-1,3-dioxoisoindolin-5-yl)azetidin-3-yl)piperazinecarbonyl)phenyl)amino)cyclohexyl)oxy)benzonitrile] | B (>50% degradation but <90% (24 hr treatment)) | B (>50% degradation but <90% (24 hr treatment)) | – |
| N#Cc1ccc(O[C@H]2CC[C@H](NC(=O)c3ccc(N4CCN(C5CCN(c6ccc7c(c6)C(=O)N(C6CCC(=O)NC6=O)C7=O)CC5)CC4)cc3)CC2)cc1Cl (stereo partly shown) [Cpd. No. 21, N-((1r,4r)-4-(3-chloro-4-cyanophenoxy)cyclohexyl)-4-(4-(1-(2-(2,6-dioxopiperidin-3-yl)-1,3-dioxoisoindolin-5-yl)piperidin-4-yl)piperazin-1-yl)benzamide] | A (>90% degradation (24 hr treatment)) | A (>90% degradation (24 hr treatment)) | – |
| N#Cc1ccc(O[C@H]2CC[C@H](NC(=O)c3ccc(N4CCN(C5CN(c6ccc7c(c6)C(=O)N(C6CCC(=O)NC6=O)C7=O)C5)CC4)cc3)CC2)cc1Cl (stereo partly shown) [Cpd. No. 22] | A (>90% degradation (24 hr treatment)) | A (>90% degradation (24 hr treatment)) | – |
| C[C@H]1C[C@@H](NC(=O)c2ccc(N3CCN(CC4CCN(c5ccc6c(c5)C(=O)N(C5CCC(=O)NC5=O)C6=O)CC4)CC3)cc2)CC[C@@H]1Oc1ccc(C#N)c(Cl)c1 (stereo partly shown) [Cpd. No. 23] | A (>90% degradation (24 hr treatment)) | A (>90% degradation (24 hr treatment)) | – |
| N#Cc1ccc(N[C@H]2CC[C@H](NC(=O)c3ccc(N4CCN(C5CN(c6ccc7c(c6)C(=O)N(C6CCC(=O)NC6=O)C7=O)C5)CC4)cc3)CC2)cc1Cl (stereo partly shown) [Cpd. No. 28, N-((1r,4r)-4-((3-chloro-4-cyanophenyl)amino)cyclohexyl)-4-(4-(1-(2-(2,6-dioxopiperidin-3-yl)-1,3-dioxoisoindolin-5-yl)azetidin-3-yl)piperazin-1-yl)benzamide] | A (>90% degradation (24 hr treatment)) | A (>90% degradation (24 hr treatment)) | – |
| CN(c1ccc(C#N)c(Cl)c1)[C@H]1CC[C@H](NC(=O)c2ccc(N3CCN(C4CN(c5ccc6c(c5)C(=O)N(C5CCC(=O)NC5=O)C6=O)C4)CC3)cc2)CC1 (stereo partly shown) [Cpd. No. 31, N-((1r,4r)-4-((3-chloro-4-cyanophenyl)(methyl)amino)cyclohexyl)-4-(4-(1-(2-(2,6-dioxopiperidin-3-yl)-1,3-dioxoisoindolin-5-yl)azetidin-3-yl)piperazin-1-yl)benzamide] | A (>90% degradation (24 hr treatment)) | A (>90% degradation (24 hr treatment)) | – |
| N#Cc1ccc(O[C@H]2CC[C@H](NC(=O)c3ccc(N4CCC5(CC4)CCN(C4CCN(c6ccc7c(c6)C(=O)N(C6CCC(=O)NC6=O)C7=O)CC4)CC5)cc3)CC2)cc1Cl (stereo partly shown) [compound 7] | B (>50% degradation but <90% (24 hr treatment)) | C (>10% degradation but <50% (24 hr treatment)) | – |
| N#Cc1ccc(O[C@H]2CC[C@H](NC(=O)c3ccc4c(c3)CN(CC3CCN(c5ccc6c(c5)C(=O)N(C5CCC(=O)NC5=O)C6=O)CC3)C4)CC2)cc1Cl (stereo partly shown) [compound 8] | – | A (>90% degradation (24 hr treatment)) | – |
| N#Cc1ccc(O[C@H]2CC[C@H](NC(=O)c3ccc4c(c3)CCN(CC3CCN(c5ccc6c(c5)C(=O)N(C5CCC(=O)NC5=O)C6=O)CC3)C4)CC2)cc1Cl (stereo partly shown) [compound 9] | – | B (>50% degradation but <90% (24 hr treatment)) | – |
| N#Cc1ccc(O[C@H]2CC[C@H](Nc3ccc(C(=O)N4CCN(CC5CCN(c6ccc7c(c6)C(=O)N(C6CCC(=O)NC6=O)C7=O)CC5)CC4)cc3)CC2)cc1Cl (stereo partly shown) [compound 13] | C (>10% degradation but <50% (24 hr treatment)) | B (>50% degradation but <90% (24 hr treatment)) | – |
| CN(c1ccc(C(=O)N2CCN(C3CCN(c4ccc5c(c4)C(=O)N(C4CCC(=O)NC4=O)C5=O)CC3)CC2)cc1)[C@H]1CC[C@H](Oc2ccc(C#N)c(Cl)c2)CC1 (stereo partly shown) [compound 14] | – | C (>10% degradation but <50% (24 hr treatment)) | – |
| CN(c1ccc(C(=O)N2CCN(CC3CCN(c4ccc5c(c4)C(=O)N(C4CCC(=O)NC4=O)C5=O)CC3)CC2)cc1)[C@H]1CC[C@H](Oc2ccc(C#N)c(Cl)c2)CC1 (stereo partly shown) [compound 15] | – | B (>50% degradation but <90% (24 hr treatment)) | – |
| C[C@H]1C[C@H](NC(=O)c2ccc(N3CCN(CC4CCN(c5ccc6c(c5)C(=O)N(C5CCC(=O)NC5=O)C6=O)CC4)CC3)cc2)CC[C@H]1Oc1ccc(C#N)c(Cl)c1 (stereo partly shown) [compound 24] | A (>90% degradation (24 hr treatment)) | A (>90% degradation (24 hr treatment)) | – |
| C[C@H]1C[C@@H](NC(=O)c2ccc(N3CCN(C4CCN(c5ccc6c(c5)C(=O)N(C5CCC(=O)NC5=O)C6=O)CC4)CC3)cc2)CC[C@@H]1Oc1ccc(C#N)c(Cl)c1 (stereo partly shown) [compound 25] | A (>90% degradation (24 hr treatment)) | A (>90% degradation (24 hr treatment)) | – |
| C[C@H]1C[C@@H](NC(=O)c2ccc(N3CCN(C4CN(c5ccc6c(c5)C(=O)N(C5CCC(=O)NC5=O)C6=O)C4)CC3)cc2)CC[C@@H]1Oc1ccc(C#N)c(Cl)c1 (stereo partly shown) [compound 26] | A (>90% degradation (24 hr treatment)) | A (>90% degradation (24 hr treatment)) | – |
| N#Cc1ccc(N[C@H]2CC[C@H](NC(=O)c3ccc(N4CCN(CC5CCN(c6ccc7c(c6)C(=O)N(C6CCC(=O)NC6=O)C7=O)CC5)CC4)cc3)CC2)cc1Cl (stereo partly shown) [compound 27] | A (>90% degradation (24 hr treatment)) | A (>90% degradation (24 hr treatment)) | – |
| CN(c1ccc(C#N)c(Cl)c1)[C@H]1CC[C@H](NC(=O)c2ccc(N3CCN(CC4CCN(c5ccc6c(c5)C(=O)N(C5CCC(=O)NC5=O)C6=O)CC4)CC3)cc2)CC1 (stereo partly shown) [compound 29] | A (>90% degradation (24 hr treatment)) | A (>90% degradation (24 hr treatment)) | – |
| CN(c1ccc(C#N)c(Cl)c1)[C@H]1CC[C@H](NC(=O)c2ccc(N3CCN(C4CCN(c5ccc6c(c5)C(=O)N(C5CCC(=O)NC5=O)C6=O)CC4)CC3)cc2)CC1 (stereo partly shown) [compound 30] | A (>90% degradation (24 hr treatment)) | A (>90% degradation (24 hr treatment)) | – |
| CN(c1ccc(C#N)c(Cl)c1)C1CCC(NC(=O)c2ccc(C#CC3CCN(C4CCN(c5ccc6c(c5)C(=O)N(C5CCC(=O)NC5=O)C6=O)CC4)CC3)cc2)CC1 (stereo not shown) [compound 32] | A (>90% degradation (24 hr treatment)) | A (>90% degradation (24 hr treatment)) | – |
| N#Cc1ccc(O[C@H]2CC[C@H](NC(=O)c3ccc(NCCCCNc4ccc5c(c4)C(=O)N(C4CCC(=O)NC4=O)C5=O)cc3)CC2)cc1Cl (stereo partly shown) [compound 210, N-((1r,4r)-4-(3-chloro-4-cyanophenoxy)cyclohexyl)-4-((4-((2-(2,6-dioxopiperidin-3-yl)-1,3-dioxoisoindolin-5-yl)amino)butyl)amino)benzamide] | – | – | % AR protein degradation in VCaP Cells (0.001 μM): 43%; % AR protein degradation in VCaP Cells (0.01 μM): 70%; % AR protein degradation in VCaP Cells (0.1 μM): 55%; % AR protein degradation in VCaP Cells (1 μM): 38% |
